Experimental findings from paper PMC5053523, “In Vitro Antibacterial Activity of Rhodanine Derivatives against Pathogenic Clinical Isolates” (PLoS ONE, 2016) are described below.

For orientation: MIC means the least concentration at which growth counts as inhibited. High values mean weaker potency, low ones greater potency.

Converted amounts (≈) assume the structure as drawn. Bounds are passed on as bounds.

For experiment [1], the system named is established methicillin-resistant S. epidermidis biofilm (ATCC 35984, NRS 101). Nature of the experiment: Microtiter dish biofilm eradication assay (crystal violet). The class given is cell-based, Staphylococcus epidermidis. To be noted: 24 h. The procedure:
We used S. epidermidis ATCC 35984 (NRS 101), a high-slime producer isolated in septicemic patients, with colonized intravascular catheters from Tennessee, USA [10]. This strain is a multi-drug resistant strain, showing resistance to methicillin, erythromycin, kanamycin, gentamicin, clindamycin and trimethoprim. Briefly, an overnight culture of biofilm—producing MRSE was diluted 1:100 in a fresh medium containing 1% glucose in a 96-well tissue-culture treated plate. Bacteria were incubated at 37°C for 24 h to permit the formation of an adherent biofilm. The medium was removed and the biofilm was washed with PBS. Antibacterial drugs (vancomycin and linezolid) and rhodanine 2, at indicated concentration, were added and incubated again at 37°C for 24 h. Plates were washed again and biofilms were stained with 0.1% (wt/vol) crystal violet. Plates were washed with PBS, air-dried and biofilm mass was dissolved using 95% ethanol. The intensity of crystal violet was measured using a micro plate reader (SpectraMax i3x; Molecular Devices, Sunnyvale, CA, USA). Data are presented as the percent biofilm mass reduction in treated groups in relation to untreated wells.

Experiment [2] relates to Staphylococcus epidermidis. Nature of the experiment: Broth microdilution MIC, Staphylococcus epidermidis. The class given is cell-based. (Broth dilution looks for growth in wells or tubes with falling amounts of substance.)

In the case of `CC(=O)NC[C@H]1CN(c2ccc(N3CCOCC3)c(F)c2)C(=O)O1` [Linezolid, linezolid, reference compound], in experiment [1] (high concentrations (up to 8 X MIC)), the biofilm mass reduction result was “not significantly decreased”.
Turning to `O=C(O)[C@H](Cc1ccccc1)N1C(=O)/C(=C/c2cccc(-c3ccc(Cl)c(Cl)c3)c2)SC1=S` [Rh 2], the biofilm mass reduction result in experiment [1] (at 4 times its MIC, relative to untreated wells) is on record as “more than 35%”; in experiment [1] (at 8 times its MIC, relative to untreated wells), more than 45%. Moreover, inhibition of growth in experiment [2] (MIC) required 4 µM (≈ 2.06 µg/mL).
